Reference: ChEMBL document CHEMBL1149966 (Bioorg Med Chem Lett, 1997)
“And” between values parts separate entries of the source, which are not always exact repeats. Identical values can stand only once.

Columns and labels:
[1] = test system: Human immunodeficiency virus 1; experiment: The activity against mutant HIV molecular clone V82F was determined; format: functional, organism-based
[2] = test system: Human immunodeficiency virus 1; experiment: The activity against HIV was determined from patient number 302; format: functional, organism-based
[3] = test system: Human immunodeficiency virus 1; experiment: The activity against HIV was determined from patient number 304; format: functional, organism-based
MT4 [4] = experiment: Inhibitory potency towards recombinant HIV-1 3B in MT-4 cell was evaluated in 0% human plasma; format: functional, cell-based
MT4 [5] = experiment: Inhibitory potency towards recombinant HIV-1 3B in MT-4 cell was evaluated in 50% human plasma; format: functional, cell-based
[6] = test system: Human immunodeficiency virus 1; experiment: The activity against HIV mutant strain V82S was determined from patient number 337; format: functional, organism-based
[7] = test system: Human immunodeficiency virus 1; experiment: The activity against HIV was determined from patient number 313; format: functional, organism-based
[8] = test system: Human immunodeficiency virus 1; experiment: The activity against HIV was determined from patient number 129; format: functional, organism-based
[9] = test system: Human immunodeficiency virus 1; experiment: The activity against HIV was determined from patient number 337; format: functional, organism-based
[10] = test system: Human immunodeficiency virus 1; experiment: The activity against mutant HIV molecular clone V82A was determined; format: functional, organism-based
[11] = test system: Human immunodeficiency virus 1; experiment: The activity against HIV multiply mutated strain M36M/I,V82V/A was determined from patient number 304; format: functional, organism-based
[12] = test system: Human immunodeficiency virus 1; experiment: The activity against mutant HIV molecular clone V82T was determined; format: functional, organism-based
Rattus norvegicus [13] = experiment: Terminal phase half-life was evaluated in vivo in rat at a dose of 5 mg/kg by intra venous administration; format: ADME, organism-based; parameters: dose 5 mg/kg; conditions: iv
[14] = test system: Human immunodeficiency virus 1; experiment: The activity against HIV mutant strain V82F was determined from patient number 313; format: functional, organism-based
[15] = test system: Human immunodeficiency virus 1; experiment: The activity against HIV mutant strain V82A was determined from patient number 302; format: functional, organism-based
MT4 [16] = experiment: Inhibitory potency towards recombinant HIV-1 3B in MT-4 cell using cytopathic effect as endpoint was evaluated in 0% human plasma; format: functional
[17] = test system: Human immunodeficiency virus 1; experiment: The activity against mutant HIV molecular clone wt (pNL4-3) was determined; format: functional, organism-based
Rattus norvegicus [18] = experiment: Maximum plasma concentration was evaluated in vivo in rat at a dose of 5 mg/kg by oral administration; format: ADME, organism-based; parameters: dose 5 mg/kg, route oral
[19] = test system: Human immunodeficiency virus 1; experiment: The activity against multiply mutated strain M36I,I54V,A71V,V82T was determined from patient number 129; format: functional, organism-based
Rattus norvegicus [20] = experiment: Oral bioavailability in rat (dose 5 mg/kg); format: ADME, organism-based; conditions: in vivo

Compound	EC50 [1] [nM]	EC50 [2] [nM]	EC50 [3] [nM]	EC50 (MT4 [4]) [nM]	EC50 (MT4 [5]) [nM]	EC50 [6] [nM]	EC50 [7] [nM]	EC50 [8] [nM]	EC50 [9] [nM]	EC50 [10] [nM]	EC50 [11] [nM]	EC50 [12] [nM]	T1/2 (Rattus norvegicus [13])	EC50 [14] [nM]	EC50 [15] [nM]	CCIC50 (MT4 [16]) [µM]	EC50 [17] [nM]	Cmax (Rattus norvegicus [18])	EC50 [19] [nM]	F (Rattus norvegicus [20])
CC(C)c1nc(CN(C)C(=O)N[C@@H](C(=O)N[C@@H](Cc2ccccc2)C[C@H](O)[C@H](Cc2ccccc2)NC(=O)OCc2cncs2)C(C)C)cs1	276	46	35	120	880	22	35	5	19	121	59	352	1.8 h and 1.41 h and 0.63 h	43	43	27	137	–	–	–
CC(C)c1nc(CN(C)C(=O)N[C@H](C(=O)N[C@@H](Cc2ccccc2)C[C@H](O)[C@H](Cc2ccccc2)NC(=O)OCc2cncs2)C(C)C)cs1 [RITONAVIR]	308	–	19	90	1070	143	35	5	35	230	54	316	–	123	32	35	55	1360 ng/mL and 3580 ng/mL	65	70.7% and 37.4% and 29.9%
